The values below come from paper PMC12051620, “Molecular basis underlying the specificity of an antagonist AA92593 for mammalian melanopsins” (The Journal of Biological Chemistry, 2025).

For the assay, the target named is T1, human melanopsin WT (Homo sapiens, UniProt Q9UHM6).
T1 construct: expressed in transfected cells; host or cells: COS-1
T1 sequence (Q9UHM6 1-384 limits assumed): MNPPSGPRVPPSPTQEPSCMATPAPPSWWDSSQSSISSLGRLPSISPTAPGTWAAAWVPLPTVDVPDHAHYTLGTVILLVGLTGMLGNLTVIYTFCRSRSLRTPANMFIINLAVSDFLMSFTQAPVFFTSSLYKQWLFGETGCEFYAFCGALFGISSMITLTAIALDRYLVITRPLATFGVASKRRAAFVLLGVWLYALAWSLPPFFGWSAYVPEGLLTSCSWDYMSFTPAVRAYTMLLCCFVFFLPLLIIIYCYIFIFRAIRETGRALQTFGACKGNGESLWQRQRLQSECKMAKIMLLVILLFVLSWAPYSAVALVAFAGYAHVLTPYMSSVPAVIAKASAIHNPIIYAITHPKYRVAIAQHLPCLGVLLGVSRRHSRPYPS
Nature of the assay: GsX GloSensor assay with Gsα/q11 (light-induced cAMP response). The settings on record: COS-1 cells. It counts as cell-based. An excerpt:
To quantify the antagonistic effects of AA92593 on mammalian melanopsins, we used the GsX GloSensor assay ([12], [13], [14]). This assay measures GPCR-induced increases in intracellular cAMP levels even for Gq-, Gi/o-, or G12-coupled receptors by using Gsα chimeras ([12], [13], [14]). Because melanopsin is primarily coupled with Gq-type G proteins, a Gsα mutant with 11 C-terminal sequence of Gqα (Gsα/q11) was expressed in COS-1 cells with melanopsin and a luciferase-based cAMP biosensor (see “Experimental procedures”) ([15]). This assay enables the measurement of Gq activation by melanopsin as cAMP production (an increase in luminescence). In this study, we used C-terminal–truncated melanopsin constructs to increase the expression levels with minimal compromise in functionality ([9], [16], [17], [18], [19]). […] In addition, the C-terminal region is located far from the binding site of AA92593 (see below). Hereafter, the C-terminal–truncated melanopsin constructs are named as “WT.”
In the constructs for melanopsin expression (opsin name - GenBank ID: human melanopsin - NM_033282.4, mouse melanopsin - NM_013887.2, Xenopus Opn4x - NM_001085674.1, chicken opn4-1 - NM_001397961.1, B. belcheri melanopsin - AB205400.1, and B. lanceolatum melanopsin - MF464477.1), the C-terminal amino acid residues (94, 140, 200, 214, 296, and 308 residues for human ([9]), mouse ([9]), Xenopus, chicken, belcheri ([16]), and lanceolatum melanopsins, respectively) were removed, the 1D4 tag sequence (ETSQVAPA) was added, and inserted into the EcoRI/NotI site in a mammalian expression vector pMT. Jumping spider rhodopsin-1 (GenBank ID: AB251846.1) was also added with the 1D4 tag and inserted into pMT vector. Human and mouse melanopsins, and jumping spider rhodopsin-1 in pCDNA3.1 were kindly provided from Drs. Akihisa Terakita and Mitsumasa Koyanagi (Osaka Metropolitan University). In this paper, each opsin with the C-terminal sequence modifications as described above is denoted “WT.” Bovine Gsα and its mutants Gsα/q11 and Gsα/i11 (C-terminal 11 residues are replaced with Gqα and Giα, respectively) were also inserted into the pMT vector. The GFP-tagged melanopsin constructs, in which EGFP protein fused with C-termini of melanopsins, were prepared as previously described ([9], [50]). […]
For GloSensor assay, opsins, GloSensor assay sensor (coded by pGlo-22F), and NanoBiT-tagged G proteins were transiently expressed in COS-1 cells (kindly provided from Dr David Farrens, Oregon Health and Science University) using PEI as described previously ([24], [52]). […] For GFP-fluorescence microscopy, a 35-mm cell culture dish (IWAKI) was transfected with 2 μg melanopsin-GFP plasmid and 8 μg PEI in 400 μl Opti-mem and 1.2 ml D-MEM. […]

[1] abbreviates: relative peak cAMP response vs no AA92593.

Structures are written as SMILES.

`COc1ccc(S(=O)(=O)N2CCCCC2)cc1C` [AA92593]: the “Hill fitting parameter rate of dose-response curve” value is given as −0.92 ± 0.21. Further, the IC50 (0.1 μM 9-cis-retinal, white light 10 s, n = 3, read-out: IC50, reduction in peak cAMP responses upon Gsα/q11 activation) was 1050 ± 280 nM. Besides, under setting [1], the “Hill fitting parameter max of dose-response curve” value turned out to be 102.59 ± 2.72 and the “Hill fitting parameter min of dose-response curve” value was 13.65 ± 7.28.
